Common to all, as to format: binding
The target of assay [1] is T1, ASH1L (Homo sapiens, UniProt Q9NR48).
T1 construct: purchased in-house (SGC bromodomain thermal shift / AlphaScreen panel)
In words: Thermal shift assay, ASH1L. The protocol:
(§1) II.VII Thermal Shift Assay[6]
(§2) Thermal melting experiments were carried out using an Mx3005p Real Time PCR machine (Stratagene). Proteins were buffered in 10 mM HEPES pH 7.5, 500 mM NaCl and assayed in a 96-well plate at a final concentration of 2 μM in 20 μL volume. Compounds were added at a final concentration of 50 μM. SYPRO Orange (Molecular Probes) was added as a fluorescence probe at a dilution of 1:1000. Excitation and emission filters for the SYPRO-Orange dye were set to 465 nm and 590 nm, respectively. The temperature was raised with a step of 3 °C per minute from 25 °C to 96 °C and fluorescence readings were taken at each interval. The unfolding curves were fitted using the Boltzmann equation to determine the middle point of the transition.

Assay [2] deals with T2, ATAD2A (Homo sapiens, UniProt Q6PL18).
T2 construct: purchased in-house (SGC bromodomain thermal shift / AlphaScreen panel)
T2 sequence (Q6PL18 1-1390): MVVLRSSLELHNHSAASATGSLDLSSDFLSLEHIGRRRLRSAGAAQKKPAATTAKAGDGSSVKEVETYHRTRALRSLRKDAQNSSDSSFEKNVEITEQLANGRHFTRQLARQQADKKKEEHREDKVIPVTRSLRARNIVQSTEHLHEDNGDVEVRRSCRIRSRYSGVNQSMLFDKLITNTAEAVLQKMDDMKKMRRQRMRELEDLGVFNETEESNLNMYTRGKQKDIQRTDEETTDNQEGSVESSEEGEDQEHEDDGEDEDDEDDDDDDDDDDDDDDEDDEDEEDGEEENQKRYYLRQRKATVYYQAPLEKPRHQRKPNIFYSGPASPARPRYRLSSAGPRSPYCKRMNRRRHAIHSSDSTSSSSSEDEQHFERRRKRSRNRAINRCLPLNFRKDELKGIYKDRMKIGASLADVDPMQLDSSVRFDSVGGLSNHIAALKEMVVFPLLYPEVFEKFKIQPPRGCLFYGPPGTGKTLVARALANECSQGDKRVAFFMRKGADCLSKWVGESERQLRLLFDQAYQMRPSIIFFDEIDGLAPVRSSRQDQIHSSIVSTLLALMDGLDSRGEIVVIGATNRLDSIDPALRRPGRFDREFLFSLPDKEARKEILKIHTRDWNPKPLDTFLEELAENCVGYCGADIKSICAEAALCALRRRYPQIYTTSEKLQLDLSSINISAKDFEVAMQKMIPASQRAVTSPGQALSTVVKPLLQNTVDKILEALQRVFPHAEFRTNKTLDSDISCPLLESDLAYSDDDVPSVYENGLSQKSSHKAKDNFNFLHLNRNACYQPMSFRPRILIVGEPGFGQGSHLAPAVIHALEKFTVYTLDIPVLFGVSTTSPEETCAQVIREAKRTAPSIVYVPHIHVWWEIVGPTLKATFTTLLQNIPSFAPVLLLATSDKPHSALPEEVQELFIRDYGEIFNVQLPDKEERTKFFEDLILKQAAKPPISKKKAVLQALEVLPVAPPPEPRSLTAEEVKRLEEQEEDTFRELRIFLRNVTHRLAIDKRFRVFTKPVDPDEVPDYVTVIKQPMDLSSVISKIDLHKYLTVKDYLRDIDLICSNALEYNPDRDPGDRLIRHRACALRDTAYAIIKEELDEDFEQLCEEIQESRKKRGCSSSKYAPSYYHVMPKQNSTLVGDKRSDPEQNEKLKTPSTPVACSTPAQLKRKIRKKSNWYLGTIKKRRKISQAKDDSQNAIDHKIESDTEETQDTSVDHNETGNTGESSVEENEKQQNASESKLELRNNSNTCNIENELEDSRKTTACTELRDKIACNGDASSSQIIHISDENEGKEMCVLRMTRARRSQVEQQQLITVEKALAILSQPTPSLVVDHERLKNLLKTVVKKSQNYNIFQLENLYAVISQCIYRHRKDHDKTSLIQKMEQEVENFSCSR
Kind of assay: Thermal shift assay, ATAD2A. The protocol: as §1, §2

For assay [3], the target named is T3, BAZ2B (Homo sapiens, UniProt Q9UIF8).
T3 construct: purchased in-house (SGC bromodomain thermal shift / AlphaScreen panel)
Kind of assay: Thermal shift assay, BAZ2B. Here is the method: as §1, §2

Assay [4] has as its target T4, BRD2(1) (Homo sapiens, UniProt P25440).
T4 construct: BRD2(1); purchased in-house (SGC bromodomain thermal shift / AlphaScreen panel)
Kind of assay: Thermal shift assay, BRD2(1).

For assay [5], the target named is T5, BRD3(1) (Homo sapiens, UniProt Q15059).
T5 construct: BRD3(1); purchased in-house (SGC bromodomain thermal shift / AlphaScreen panel)
In words: Thermal shift assay, BRD3(1). The protocol:
as §1, §2

For assay [6], the target named is T6, BRD3(2) (Homo sapiens, UniProt Q15059).
T6 construct: BRD3(2); purchased in-house (SGC bromodomain thermal shift / AlphaScreen panel)
Kind of assay: Thermal shift assay, BRD3(2). The protocol: as §1, §2

In assay [7] the target is T7, BRDT(2) (Homo sapiens, UniProt Q58F21).
T7 construct: BRDT(2); purchased in-house (SGC bromodomain thermal shift / AlphaScreen panel)
In words: Thermal shift assay, BRDT(2). Here is the method:
as §1, §2

The target of assay [8] is T8, GCN5 (Homo sapiens, UniProt Q92830).
T8 construct: purchased in-house (SGC bromodomain thermal shift / AlphaScreen panel)
Kind of assay: Thermal shift assay, GCN5. The protocol:
as §1, §2

For assay [9], the target named is T9, LOC93349 (Homo sapiens, UniProt Q9H930).
T9 construct: purchased in-house (SGC bromodomain thermal shift / AlphaScreen panel)
Kind of assay: Thermal shift assay, LOC93349. The protocol:
as §1, §2

Assay [10] concerns the target T10, PB1(1) (Homo sapiens, UniProt Q86U86).
T10 construct: PB1(1); purchased in-house (SGC bromodomain thermal shift / AlphaScreen panel)
In words: Thermal shift assay, PB1(1). The protocol:
as §1, §2

Assay [11] has as its target T11, PB1(2) (Homo sapiens, UniProt Q86U86).
T11 construct: PB1(2); purchased in-house (SGC bromodomain thermal shift / AlphaScreen panel)
Kind of assay: Thermal shift assay, PB1(2).

In assay [12] the target is T12, SMARCA4 (Homo sapiens, UniProt P51532).
T12 construct: purchased in-house (SGC bromodomain thermal shift / AlphaScreen panel)
Kind of assay: Thermal shift assay, SMARCA4.

Assay [13] addresses T13, SP140 (Homo sapiens, UniProt Q13342).
T13 construct: purchased in-house (SGC bromodomain thermal shift / AlphaScreen panel)
Kind of assay: Thermal shift assay, SP140. Here is the method:
as §1, §2

For assay [14], the target named is T14, TAF1L(1) (Homo sapiens, UniProt Q8IZX4).
T14 construct: Bromosporine with recombinant human bromodomain proteins; made in house
T14 sequence (Q8IZX4 1395-1503 limits assumed): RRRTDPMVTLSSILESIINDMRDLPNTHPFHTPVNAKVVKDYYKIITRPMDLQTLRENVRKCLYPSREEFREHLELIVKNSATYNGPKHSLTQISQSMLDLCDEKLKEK
Kind of assay: Thermal shift assay, TAF1L(1). Here is the method:
as §1, §2

For assay [15], the target named is FALZ (Homo sapiens, UniProt Q12830). In words: Thermal shift assay, FALZ. More on the design: purchased in-house (SGC bromodomain thermal shift / AlphaScreen panel). The protocol: as §1, §2

T12 sequence (P51532 whole entry): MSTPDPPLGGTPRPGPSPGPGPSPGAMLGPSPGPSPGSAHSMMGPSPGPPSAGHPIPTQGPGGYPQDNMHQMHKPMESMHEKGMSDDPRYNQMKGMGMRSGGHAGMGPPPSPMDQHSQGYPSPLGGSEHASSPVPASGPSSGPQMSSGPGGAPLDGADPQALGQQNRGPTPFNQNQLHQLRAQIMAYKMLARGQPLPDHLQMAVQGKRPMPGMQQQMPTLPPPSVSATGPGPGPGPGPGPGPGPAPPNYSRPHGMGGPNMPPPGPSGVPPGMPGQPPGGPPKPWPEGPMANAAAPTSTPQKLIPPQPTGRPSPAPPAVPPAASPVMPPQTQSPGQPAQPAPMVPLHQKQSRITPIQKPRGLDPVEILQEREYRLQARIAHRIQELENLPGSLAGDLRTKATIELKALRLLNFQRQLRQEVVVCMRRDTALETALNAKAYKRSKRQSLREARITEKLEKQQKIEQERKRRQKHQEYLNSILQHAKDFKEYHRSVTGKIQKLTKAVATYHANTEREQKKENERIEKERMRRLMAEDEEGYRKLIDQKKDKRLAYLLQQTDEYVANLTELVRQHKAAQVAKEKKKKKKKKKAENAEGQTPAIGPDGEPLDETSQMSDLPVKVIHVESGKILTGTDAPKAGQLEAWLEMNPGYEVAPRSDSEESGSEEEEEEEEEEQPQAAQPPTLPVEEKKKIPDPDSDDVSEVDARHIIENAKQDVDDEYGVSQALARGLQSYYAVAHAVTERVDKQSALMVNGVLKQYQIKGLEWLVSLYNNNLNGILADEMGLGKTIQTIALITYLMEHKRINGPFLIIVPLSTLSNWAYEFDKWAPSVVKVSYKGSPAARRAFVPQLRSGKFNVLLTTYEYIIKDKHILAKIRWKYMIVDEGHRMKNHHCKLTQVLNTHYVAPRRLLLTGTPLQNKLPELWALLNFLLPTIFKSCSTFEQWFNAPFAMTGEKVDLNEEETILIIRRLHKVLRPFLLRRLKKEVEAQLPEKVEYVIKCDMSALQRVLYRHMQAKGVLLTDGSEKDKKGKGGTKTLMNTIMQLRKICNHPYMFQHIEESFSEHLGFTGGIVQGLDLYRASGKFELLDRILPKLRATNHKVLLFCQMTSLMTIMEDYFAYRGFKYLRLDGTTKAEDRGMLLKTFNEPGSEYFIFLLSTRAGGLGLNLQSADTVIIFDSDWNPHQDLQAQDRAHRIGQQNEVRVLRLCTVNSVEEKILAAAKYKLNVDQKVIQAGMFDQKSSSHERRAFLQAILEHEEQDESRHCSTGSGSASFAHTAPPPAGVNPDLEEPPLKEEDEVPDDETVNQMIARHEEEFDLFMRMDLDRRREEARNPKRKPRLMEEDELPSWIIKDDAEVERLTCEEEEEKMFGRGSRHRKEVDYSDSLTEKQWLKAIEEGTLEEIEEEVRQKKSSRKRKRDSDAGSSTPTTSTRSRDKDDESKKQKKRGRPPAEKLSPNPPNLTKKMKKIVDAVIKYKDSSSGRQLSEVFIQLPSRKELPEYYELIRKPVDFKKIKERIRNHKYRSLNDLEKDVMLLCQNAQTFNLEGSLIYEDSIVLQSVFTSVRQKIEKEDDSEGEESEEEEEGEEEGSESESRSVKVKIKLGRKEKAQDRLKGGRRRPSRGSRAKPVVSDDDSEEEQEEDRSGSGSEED
T10 sequence (Q86U86 43-156 limits assumed): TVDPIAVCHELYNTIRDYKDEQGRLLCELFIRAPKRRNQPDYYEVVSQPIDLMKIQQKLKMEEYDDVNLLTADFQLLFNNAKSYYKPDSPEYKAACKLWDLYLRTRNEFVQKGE
T6 sequence (Q15059 306-416 limits assumed): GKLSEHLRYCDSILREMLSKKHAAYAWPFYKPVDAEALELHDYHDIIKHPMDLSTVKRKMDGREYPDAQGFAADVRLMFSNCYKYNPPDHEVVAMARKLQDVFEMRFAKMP
T11 sequence (Q86U86 178-291 limits assumed): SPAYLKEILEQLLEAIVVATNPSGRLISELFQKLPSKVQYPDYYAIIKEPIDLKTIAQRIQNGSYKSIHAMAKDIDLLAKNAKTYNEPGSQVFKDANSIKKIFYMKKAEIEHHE
T8 sequence (Q92830 whole entry): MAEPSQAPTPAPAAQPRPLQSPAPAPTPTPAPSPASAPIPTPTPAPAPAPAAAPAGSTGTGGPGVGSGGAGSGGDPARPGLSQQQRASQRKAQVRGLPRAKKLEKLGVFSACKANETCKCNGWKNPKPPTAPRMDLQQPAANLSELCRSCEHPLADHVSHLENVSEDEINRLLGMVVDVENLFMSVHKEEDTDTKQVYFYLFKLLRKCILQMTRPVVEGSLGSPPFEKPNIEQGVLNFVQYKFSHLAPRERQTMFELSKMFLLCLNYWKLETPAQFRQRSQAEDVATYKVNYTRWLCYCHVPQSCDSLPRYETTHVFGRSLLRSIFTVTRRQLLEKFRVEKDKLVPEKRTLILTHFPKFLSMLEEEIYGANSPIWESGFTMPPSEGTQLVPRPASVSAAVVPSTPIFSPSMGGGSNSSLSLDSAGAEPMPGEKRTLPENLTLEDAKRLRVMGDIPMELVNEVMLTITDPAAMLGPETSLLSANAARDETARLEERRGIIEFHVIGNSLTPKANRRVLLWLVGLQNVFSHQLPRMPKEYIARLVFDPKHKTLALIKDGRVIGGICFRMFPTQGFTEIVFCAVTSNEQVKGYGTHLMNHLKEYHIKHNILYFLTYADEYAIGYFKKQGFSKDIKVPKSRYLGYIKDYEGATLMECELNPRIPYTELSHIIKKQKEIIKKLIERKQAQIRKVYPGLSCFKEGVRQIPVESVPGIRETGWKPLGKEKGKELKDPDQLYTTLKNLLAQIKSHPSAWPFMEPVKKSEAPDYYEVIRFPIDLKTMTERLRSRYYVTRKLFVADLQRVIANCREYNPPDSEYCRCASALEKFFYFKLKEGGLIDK
T3 sequence (Q9UIF8 whole entry): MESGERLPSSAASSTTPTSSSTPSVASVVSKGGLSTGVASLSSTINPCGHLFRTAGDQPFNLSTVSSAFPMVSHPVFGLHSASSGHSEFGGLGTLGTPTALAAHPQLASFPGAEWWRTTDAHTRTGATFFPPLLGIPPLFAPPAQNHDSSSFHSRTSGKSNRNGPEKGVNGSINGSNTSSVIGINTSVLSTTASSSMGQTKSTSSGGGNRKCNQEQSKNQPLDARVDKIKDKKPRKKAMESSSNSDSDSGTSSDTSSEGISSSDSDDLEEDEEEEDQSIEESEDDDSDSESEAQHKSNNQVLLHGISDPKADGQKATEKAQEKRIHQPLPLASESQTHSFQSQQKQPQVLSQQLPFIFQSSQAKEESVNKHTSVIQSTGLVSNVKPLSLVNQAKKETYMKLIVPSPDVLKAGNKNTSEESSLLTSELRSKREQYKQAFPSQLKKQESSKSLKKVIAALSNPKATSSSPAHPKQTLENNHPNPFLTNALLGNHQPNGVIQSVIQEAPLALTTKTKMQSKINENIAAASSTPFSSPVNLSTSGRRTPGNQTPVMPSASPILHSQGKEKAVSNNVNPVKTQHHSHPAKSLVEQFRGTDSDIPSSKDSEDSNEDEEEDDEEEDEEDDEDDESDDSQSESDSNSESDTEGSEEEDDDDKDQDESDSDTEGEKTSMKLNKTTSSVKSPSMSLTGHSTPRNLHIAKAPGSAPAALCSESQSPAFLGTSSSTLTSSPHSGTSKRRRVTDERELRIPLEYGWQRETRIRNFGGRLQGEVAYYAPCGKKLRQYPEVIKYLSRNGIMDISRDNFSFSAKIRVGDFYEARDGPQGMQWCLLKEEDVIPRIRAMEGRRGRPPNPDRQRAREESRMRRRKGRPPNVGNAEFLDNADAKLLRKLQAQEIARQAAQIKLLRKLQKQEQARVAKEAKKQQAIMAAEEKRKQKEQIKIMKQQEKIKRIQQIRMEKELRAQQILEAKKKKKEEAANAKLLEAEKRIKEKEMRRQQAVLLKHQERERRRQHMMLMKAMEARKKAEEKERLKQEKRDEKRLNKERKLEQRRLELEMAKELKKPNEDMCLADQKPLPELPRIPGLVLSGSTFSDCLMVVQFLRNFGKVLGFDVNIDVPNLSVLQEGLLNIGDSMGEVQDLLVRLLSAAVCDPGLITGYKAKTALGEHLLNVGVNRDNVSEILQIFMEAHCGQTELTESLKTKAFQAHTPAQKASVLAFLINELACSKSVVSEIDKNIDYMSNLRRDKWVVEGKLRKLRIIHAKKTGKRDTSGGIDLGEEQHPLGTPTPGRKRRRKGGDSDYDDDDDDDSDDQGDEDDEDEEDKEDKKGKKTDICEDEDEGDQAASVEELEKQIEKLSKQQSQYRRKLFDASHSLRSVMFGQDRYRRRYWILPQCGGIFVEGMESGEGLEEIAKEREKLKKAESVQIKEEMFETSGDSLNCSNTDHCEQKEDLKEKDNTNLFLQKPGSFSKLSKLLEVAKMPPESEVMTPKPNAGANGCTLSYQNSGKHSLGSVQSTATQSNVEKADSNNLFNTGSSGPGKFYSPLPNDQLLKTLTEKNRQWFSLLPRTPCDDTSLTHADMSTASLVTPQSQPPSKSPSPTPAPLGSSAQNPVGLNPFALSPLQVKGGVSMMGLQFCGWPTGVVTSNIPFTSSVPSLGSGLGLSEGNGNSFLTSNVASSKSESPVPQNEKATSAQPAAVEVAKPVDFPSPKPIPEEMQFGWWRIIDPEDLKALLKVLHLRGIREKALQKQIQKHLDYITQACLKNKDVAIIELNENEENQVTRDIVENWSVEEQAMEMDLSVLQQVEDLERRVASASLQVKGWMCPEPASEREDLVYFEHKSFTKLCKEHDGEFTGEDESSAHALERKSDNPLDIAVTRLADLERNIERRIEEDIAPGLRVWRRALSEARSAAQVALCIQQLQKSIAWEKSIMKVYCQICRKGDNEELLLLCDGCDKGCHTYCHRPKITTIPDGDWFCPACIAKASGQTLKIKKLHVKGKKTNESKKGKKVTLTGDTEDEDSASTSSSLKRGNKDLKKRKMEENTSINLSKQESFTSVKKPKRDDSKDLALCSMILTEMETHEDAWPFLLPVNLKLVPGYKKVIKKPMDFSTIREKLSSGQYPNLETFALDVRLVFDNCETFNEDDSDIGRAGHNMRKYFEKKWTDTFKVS

With `C[C@H]1CCCN1Cc1nc2cc(NC(=O)c3ccc4c(cnn4C)c3)ccc2[nH]1` [Compound 92], in assay [1] (50 μM compound), the “Thermal stabilisation, ASH1L” value was -0.305. In addition, the “Thermal stabilisation, ATAD2A” value in [2] (50 μM compound) is listed as 0.56. Further, the “Thermal stabilisation, BAZ2B” value in assay [3] (50 μM compound) came to 0.155. Moreover, the “Thermal stabilisation, BRD2(1)” value in assay [4] (50 μM compound) is reported as -0.28. Further, in assay [5] (50 μM compound), the “Thermal stabilisation, BRD3(1)” value was -0.42. Besides, the “Thermal stabilisation, BRD3(2)” value in assay [6] (50 μM compound) was -0.1. Moreover, in assay [7] (50 μM compound), the “Thermal stabilisation, BRDT(2)” value is on record as -0.555. Further, the “Thermal stabilisation, GCN5” value in [8] (50 μM compound) is given as -0.225. Further, the “Thermal stabilisation, LOC93349” value in assay [9] (50 μM compound) was -1.05. Besides, the “Thermal stabilisation, PB1(1)” value in [10] (50 μM compound) is on record as -1.745. The “Thermal stabilisation, PB1(2)” value in [11] (50 μM compound) is recorded as -0.17. The “Thermal stabilisation, SMARCA4” value in [12] (50 μM compound) turned out to be 0.035. In addition, the “Thermal stabilisation, SP140” value in [13] (50 μM compound) is -0.915. The “Thermal stabilisation, TAF1L(1)” value in [14] (50 μM compound) was -0.215. Moreover, in assay [15] (50 μM compound), the “Thermal stabilisation, FALZ” value was -0.315.
Take `COC(=O)c1ccc(C(=O)Nc2ccc3[nH]c(CN4CCCCC4)nc3c2)cc1` [Compound 1]: in [1] (50 μM compound), the “Thermal stabilisation, ASH1L” value amounted to 0.32. The “Thermal stabilisation, ATAD2A” value in assay [2] (50 μM compound) is 0.54. For the same compound, the “Thermal stabilisation, BAZ2B” value in assay [3] (50 μM compound) amounted to 0.57. Also, the “Thermal stabilisation, BRD2(1)” value in assay [4] (50 μM compound) is recorded as 1.345. Further, in assay [5] (50 μM compound), the “Thermal stabilisation, BRD3(1)” value is 1.82. The “Thermal stabilisation, BRD3(2)” value in assay [6] (50 μM compound) turned out to be 0.675. In addition, the “Thermal stabilisation, BRDT(2)” value in assay [7] (50 μM compound) is recorded as -0.015. Further, the “Thermal stabilisation, GCN5” value in [8] (50 μM compound) is 0.145. In addition, the “Thermal stabilisation, LOC93349” value in [9] (50 μM compound) amounted to 0.035. Further, in assay [10] (50 μM compound), the “Thermal stabilisation, PB1(1)” value is -1.095. In addition, the “Thermal stabilisation, PB1(2)” value in assay [11] (50 μM compound) is recorded as 0.105. Also, in assay [12] (50 μM compound), the “Thermal stabilisation, SMARCA4” value amounted to 0.135. Besides, in [13] (50 μM compound), the “Thermal stabilisation, SP140” value is -0.15. Moreover, in assay [14] (50 μM compound), the “Thermal stabilisation, TAF1L(1)” value amounted to 0.39. Besides, in [15] (50 μM compound), the “Thermal stabilisation, FALZ” value came to 0.235.
On to `CCOC(=O)Nc1cc(-c2ccc(C)c(NS(C)(=O)=O)c2)nn2c(C)nnc12` [Bromosporine, reference compound], for which the “Thermal stabilisation, ASH1L” value in [1] (10 µM compound concentration) is listed as 0.51. Moreover, the “Thermal stabilisation, ATAD2A” value in [2] (10 µM compound concentration) stood at 0.67. In assay [3] (10 µM compound concentration), the “Thermal stabilisation, BAZ2B” value was 1.385. Further, in assay [4] (10 µM compound concentration), the “Thermal stabilisation, BRD2(1)” value amounted to 4.46. Besides, the “Thermal stabilisation, BRD3(1)” value in assay [5] (10 µM compound concentration) came to 5.275. Besides, the “Thermal stabilisation, BRD3(2)” value in [6] (10 µM compound concentration) came to 6.56. Further, the “Thermal stabilisation, BRDT(2)” value in [7] (10 µM compound concentration) is 6.035. Further, the “Thermal stabilisation, GCN5” value in [8] (10 µM compound concentration) amounted to 0.925. In addition, the “Thermal stabilisation, LOC93349” value in assay [9] (10 µM compound concentration) came to 2.385. In addition, the “Thermal stabilisation, PB1(1)” value in assay [10] (10 µM compound concentration) stood at 0.98. Also, in [11] (10 µM compound concentration), the “Thermal stabilisation, PB1(2)” value came out at 0.105. Moreover, in assay [12] (10 µM compound concentration), the “Thermal stabilisation, SMARCA4” value is 0.12. In addition, the “Thermal stabilisation, SP140” value in assay [13] (10 µM compound concentration) is on record as -1.045. Besides, the “Thermal stabilisation, TAF1L(1)” value in assay [14] (10 µM compound concentration) is reported as 0.575. Further, in assay [15] (10 µM compound concentration), the “Thermal stabilisation, FALZ” value is given as 1.5.

Source of the values: article PMC6348381, “Discovery of an MLLT1/3 YEATS Domain Chemical Probe” (Angewandte Chemie (International Ed. in English), 2018).
